Assay results reported in the supplement of paper PMC12406974.

How the values were obtained:
Experiment in all cases: maximum observed lethal fraction; higher = more cell death
U2OS BCL2L12-KO = tested on: U2OS BCL2L12-KO
U2OS PTBP1-KO = tested on: U2OS PTBP1-KO
U2OS BAX/BAK1 DKO = tested on: U2OS BAX/BAK1 DKO
U2OS = tested on: U2OS
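Note: FLICK assay: SYTOX Green fluorescence of dead cells tracked over time after drugging in 96-well plates, with total cell counts taken from Triton X-100 lysed wells.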

CN1CC[C@H](c2c(O)cc(O)c3c(=O)cc(-c4ccccc4Cl)oc23)[C@H](O)C1 [Flavopiridol]
maximum observed lethal fraction
Conditions | 0.01 µM | 0.0316 µM | 0.1 µM | 0.316 µM | 1 µM | 3.16 µM | 10 µM
U2OS | 0.0575 | 0.0639 | 0.486 | 0.528 | 0.552 | 0.501 | 0.356
U2OS BAX/BAK1 DKO | 0.0607 | 0.0712 | 0.208 | 0.0919 | 0.093 | 0.092 | 0.0925
U2OS BCL2L12-KO | 0.0552 | 0.0619 | 0.1 | 0.279 | 0.298 | 0.295 | 0.249
U2OS PTBP1-KO | 0.0606 | 0.067 | 0.099 | 0.198 | 0.282 | 0.247 | 0.198

COC(=O)C[C@](O)(CCCC(C)(C)O)C(=O)O[C@@H]1C(OC)=C[C@]23CCCN2CCc2cc4c(cc2[C@H]13)OCO4 [Homoharringtonine]
maximum observed lethal fraction
Conditions | 0.01 µM | 0.0316 µM | 0.1 µM | 0.316 µM | 1 µM | 3.16 µM | 10 µM
U2OS | 0.0607 | 0.0942 | 0.296 | 0.395 | 0.578 | 0.692 | 0.722
U2OS BAX/BAK1 DKO | 0.0663 | 0.099 | 0.0992 | 0.106 | 0.112 | 0.102 | 0.106
U2OS BCL2L12-KO | 0.0701 | 0.0909 | 0.0937 | 0.102 | 0.0962 | 0.115 | 0.21
U2OS PTBP1-KO | 0.0765 | 0.165 | 0.0974 | 0.109 | 0.186 | 0.184 | 0.197

CC(=O)[C@]1(O)Cc2c(O)c3c(c(O)c2[C@@H](O[C@H]2C[C@H](N)[C@H](O)[C@H](C)O2)C1)C(=O)c1ccccc1C3=O [Idarubicin]
maximum observed lethal fraction
Conditions | 0.001 µM | 0.00316 µM | 0.01 µM | 0.0316 µM | 0.1 µM | 0.316 µM | 1 µM
U2OS | 0.0637 | 0.0722 | 0.0707 | 0.166 | 0.666 | 0.792 | 0.604
U2OS BAX/BAK1 DKO | 0.0756 | 0.0795 | 0.0849 | 0.0871 | 0.212 | 0.18 | 0.193
U2OS BCL2L12-KO | 0.0766 | 0.088 | 0.0897 | 0.231 | 0.74 | 0.724 | 0.321
U2OS PTBP1-KO | 0.077 | 0.0792 | 0.0832 | 0.2 | 0.633 | 0.589 | 0.305

CC(C)C[C@@H](C=O)NC(=O)[C@H](CC(C)C)NC(=O)[C@H](CC(C)C)NC(=O)OCc1ccccc1 [MG132]
maximum observed lethal fraction
Conditions | 0.01 µM | 0.0316 µM | 0.1 µM | 0.316 µM | 1 µM | 3.16 µM | 10 µM
U2OS | 0.0559 | 0.0568 | 0.0844 | 0.698 | 0.86 | 0.893 | 0.926
U2OS BAX/BAK1 DKO | 0.0534 | 0.0549 | 0.0687 | 0.0897 | 0.337 | 0.434 | 0.384
U2OS BCL2L12-KO | 0.0715 | 0.07 | 0.0753 | 0.327 | 0.817 | 0.914 | 0.972
U2OS PTBP1-KO | 0.0698 | 0.0706 | 0.0708 | 0.182 | 0.683 | 0.813 | 0.923

O=C(NOC[C@H](O)CO)c1ccc(F)c(F)c1Nc1ccc(I)cc1F [Mirdametinib]
maximum observed lethal fraction
Conditions | 0.0316 µM | 0.1 µM | 0.316 µM | 1 µM | 3.16 µM | 10 µM | 31.6 µM
U2OS | 0.0749 | 0.077 | 0.0842 | 0.244 | 0.353 | 0.435 | 0.554
U2OS BAX/BAK1 DKO | 0.0734 | 0.0716 | 0.0737 | 0.078 | 0.0794 | 0.0785 | 0.0843
U2OS BCL2L12-KO | 0.104 | 0.11 | 0.123 | 0.349 | 0.546 | 0.58 | 0.806
U2OS PTBP1-KO | 0.0994 | 0.11 | 0.102 | 0.121 | 0.187 | 0.229 | 0.376

NC(=O)c1cccc2cn(-c3ccc([C@@H]4CCCNC4)cc3)nc12 [Niraparib]
maximum observed lethal fraction
Conditions | 0.1 µM | 0.316 µM | 1 µM | 3.16 µM | 10 µM | 31.6 µM | 100 µM
U2OS | 0.0543 | 0.0611 | 0.0677 | 0.067 | 0.0744 | 0.716 | 0.968
U2OS BAX/BAK1 DKO | 0.0556 | 0.0569 | 0.065 | 0.0723 | 0.0787 | 0.342 | 0.936
U2OS BCL2L12-KO | 0.0692 | 0.0678 | 0.0775 | 0.0795 | 0.0934 | 0.86 | 0.928
U2OS PTBP1-KO | 0.0698 | 0.0678 | 0.0749 | 0.0795 | 0.0839 | 0.396 | 0.964

CC(=O)c1c(C)c2cnc(Nc3ccc(N4CCNCC4)cn3)nc2n(C2CCCC2)c1=O [Palbociclib]
maximum observed lethal fraction
Conditions | 0.01 µM | 0.0316 µM | 0.1 µM | 0.316 µM | 1 µM | 3.16 µM | 10 µM
U2OS | 0.0597 | 0.068 | 0.0645 | 0.0683 | 0.0747 | 0.09 | 0.173
U2OS BAX/BAK1 DKO | 0.0642 | 0.0646 | 0.0686 | 0.0764 | 0.0783 | 0.0842 | 0.0911
U2OS BCL2L12-KO | 0.0599 | 0.0645 | 0.0667 | 0.0699 | 0.0732 | 0.0829 | 0.221
U2OS PTBP1-KO | 0.0641 | 0.0713 | 0.0739 | 0.0802 | 0.0817 | 0.0847 | 0.109

Cc1[nH]c2ccccc2c1CCNCc1ccc(/C=C/C(=O)NO)cc1 [Panobinostat]
maximum observed lethal fraction
Conditions | 0.001 µM | 0.00316 µM | 0.01 µM | 0.0316 µM | 0.1 µM | 0.316 µM | 1 µM
U2OS | 0.0735 | 0.0836 | 0.265 | 0.655 | 0.761 | 0.802 | 0.851
U2OS BAX/BAK1 DKO | 0.0715 | 0.0768 | 0.0894 | 0.102 | 0.108 | 0.0953 | 0.0939
U2OS BCL2L12-KO | 0.0774 | 0.0897 | 0.352 | 0.775 | 0.856 | 0.838 | 0.895
U2OS PTBP1-KO | 0.0914 | 0.11 | 0.349 | 0.527 | 0.601 | 0.603 | 0.65
